{
  "source": "paper PMC9386376",
  "about": "“Discovery of spirooxindole-derived small-molecule compounds as novel HDAC/MDM2 dual inhibitors and investigation of their anticancer activity” (Frontiers in Oncology, 2022)",
  "key": {"[1]": {"molecular_target": "T1, GST-tagged MDM2 (Homo sapiens, UniProt Q00987)", "T1 construct": "purchased Cisbio Co. Ltd", "T1 sequence (Q00987 whole entry)": "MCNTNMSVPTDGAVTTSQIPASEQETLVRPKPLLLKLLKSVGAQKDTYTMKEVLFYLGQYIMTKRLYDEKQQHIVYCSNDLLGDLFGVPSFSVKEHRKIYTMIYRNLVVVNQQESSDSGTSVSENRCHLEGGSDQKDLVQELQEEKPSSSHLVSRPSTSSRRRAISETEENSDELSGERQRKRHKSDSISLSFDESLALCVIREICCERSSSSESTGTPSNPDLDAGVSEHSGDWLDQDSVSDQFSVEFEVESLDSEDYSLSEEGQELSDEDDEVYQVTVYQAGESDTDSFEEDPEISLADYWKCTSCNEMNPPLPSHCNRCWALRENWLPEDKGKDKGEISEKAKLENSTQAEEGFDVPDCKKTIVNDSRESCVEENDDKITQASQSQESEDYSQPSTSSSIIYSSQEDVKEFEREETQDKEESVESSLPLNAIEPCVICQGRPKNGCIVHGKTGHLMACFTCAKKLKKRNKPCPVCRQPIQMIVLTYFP", "assay": "HTRF enzyme inhibition assay, MDM2", "type": "biochemical", "details": "compound at 1 μM"}, "[2]": {"molecular_target": "HDAC2 (Homo sapiens, UniProt Q92769)", "sequence (Q92769 whole entry, canonical isoform)": "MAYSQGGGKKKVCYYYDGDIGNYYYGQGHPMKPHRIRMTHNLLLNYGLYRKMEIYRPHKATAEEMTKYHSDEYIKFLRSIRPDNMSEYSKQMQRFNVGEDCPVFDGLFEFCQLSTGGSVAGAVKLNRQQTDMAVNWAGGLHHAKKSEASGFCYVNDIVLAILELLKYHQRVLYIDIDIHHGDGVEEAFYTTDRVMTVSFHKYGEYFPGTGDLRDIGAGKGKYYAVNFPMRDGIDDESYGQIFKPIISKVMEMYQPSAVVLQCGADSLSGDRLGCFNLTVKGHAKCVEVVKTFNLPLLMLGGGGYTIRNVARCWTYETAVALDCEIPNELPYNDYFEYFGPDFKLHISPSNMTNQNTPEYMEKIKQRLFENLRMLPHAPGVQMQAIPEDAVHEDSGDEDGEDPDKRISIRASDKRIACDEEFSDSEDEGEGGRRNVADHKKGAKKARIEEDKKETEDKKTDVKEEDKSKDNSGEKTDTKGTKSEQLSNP", "assay": "HDAC isoform selectivity, HDAC2", "type": "biochemical", "details": "HDAC subtype panel"}, "[3]": {"molecular_target": "HDAC3 (Homo sapiens, UniProt O15379)", "sequence (O15379 whole entry, canonical isoform)": "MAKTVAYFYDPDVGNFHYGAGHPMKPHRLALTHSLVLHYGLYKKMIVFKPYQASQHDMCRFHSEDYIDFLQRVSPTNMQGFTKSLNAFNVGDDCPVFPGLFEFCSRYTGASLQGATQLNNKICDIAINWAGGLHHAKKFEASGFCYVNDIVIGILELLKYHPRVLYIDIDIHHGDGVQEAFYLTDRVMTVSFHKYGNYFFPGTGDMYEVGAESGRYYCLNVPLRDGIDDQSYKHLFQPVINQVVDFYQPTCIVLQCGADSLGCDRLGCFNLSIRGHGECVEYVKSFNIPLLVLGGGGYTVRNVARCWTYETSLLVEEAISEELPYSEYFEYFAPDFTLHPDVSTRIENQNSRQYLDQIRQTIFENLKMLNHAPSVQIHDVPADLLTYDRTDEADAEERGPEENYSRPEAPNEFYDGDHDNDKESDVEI", "sequence (Q9Y618 395-489 partner limits assumed)": "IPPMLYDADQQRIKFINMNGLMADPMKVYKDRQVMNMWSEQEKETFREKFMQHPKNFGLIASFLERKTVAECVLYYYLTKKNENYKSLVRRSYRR", "assay": "HDAC isoform selectivity, HDAC3", "type": "biochemical", "details": "HDAC subtype panel"}, "[4]": {"molecular_target": "HDAC4 (Homo sapiens, UniProt P56524)", "assay": "HDAC isoform selectivity, HDAC4", "type": "biochemical", "details": "HDAC subtype panel"}, "[5]": {"molecular_target": "HDAC5 (Homo sapiens, UniProt Q9UQL6)", "sequence (Q9UQL6 whole entry, canonical isoform)": "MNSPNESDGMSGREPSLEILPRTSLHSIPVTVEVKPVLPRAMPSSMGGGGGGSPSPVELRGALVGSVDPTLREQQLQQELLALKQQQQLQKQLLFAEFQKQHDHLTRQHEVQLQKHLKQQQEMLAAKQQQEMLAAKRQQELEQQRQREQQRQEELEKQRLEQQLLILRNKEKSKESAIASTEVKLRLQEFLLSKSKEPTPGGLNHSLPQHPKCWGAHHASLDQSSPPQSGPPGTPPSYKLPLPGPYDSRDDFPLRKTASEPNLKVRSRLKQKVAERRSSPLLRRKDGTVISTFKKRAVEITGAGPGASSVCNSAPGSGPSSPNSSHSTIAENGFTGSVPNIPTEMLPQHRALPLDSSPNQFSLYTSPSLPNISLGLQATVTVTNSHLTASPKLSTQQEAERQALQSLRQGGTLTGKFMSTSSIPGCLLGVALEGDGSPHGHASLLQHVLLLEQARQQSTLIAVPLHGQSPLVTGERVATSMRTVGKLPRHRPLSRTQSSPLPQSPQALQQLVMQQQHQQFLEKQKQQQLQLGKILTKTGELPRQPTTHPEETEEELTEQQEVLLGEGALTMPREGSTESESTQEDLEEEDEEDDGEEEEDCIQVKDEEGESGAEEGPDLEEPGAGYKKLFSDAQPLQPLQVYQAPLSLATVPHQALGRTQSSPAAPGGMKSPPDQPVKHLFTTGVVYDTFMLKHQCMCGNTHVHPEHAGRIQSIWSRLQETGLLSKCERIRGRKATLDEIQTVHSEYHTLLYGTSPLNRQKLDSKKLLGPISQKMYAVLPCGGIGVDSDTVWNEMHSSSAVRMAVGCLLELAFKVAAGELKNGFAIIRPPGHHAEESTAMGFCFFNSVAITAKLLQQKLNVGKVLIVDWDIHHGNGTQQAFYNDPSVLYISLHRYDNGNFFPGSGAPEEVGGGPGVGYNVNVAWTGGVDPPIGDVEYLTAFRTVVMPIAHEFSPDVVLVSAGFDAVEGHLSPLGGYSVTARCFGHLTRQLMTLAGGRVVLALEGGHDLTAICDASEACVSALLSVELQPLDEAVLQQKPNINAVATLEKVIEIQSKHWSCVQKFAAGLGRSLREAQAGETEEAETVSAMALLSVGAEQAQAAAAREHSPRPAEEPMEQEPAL", "assay": "HDAC isoform selectivity, HDAC5", "type": "biochemical", "details": "HDAC subtype panel"}, "[6]": {"molecular_target": "T2, HDAC6 (Homo sapiens, UniProt Q9UBN7)", "T2 sequence (Q9UBN7 1-1215)": "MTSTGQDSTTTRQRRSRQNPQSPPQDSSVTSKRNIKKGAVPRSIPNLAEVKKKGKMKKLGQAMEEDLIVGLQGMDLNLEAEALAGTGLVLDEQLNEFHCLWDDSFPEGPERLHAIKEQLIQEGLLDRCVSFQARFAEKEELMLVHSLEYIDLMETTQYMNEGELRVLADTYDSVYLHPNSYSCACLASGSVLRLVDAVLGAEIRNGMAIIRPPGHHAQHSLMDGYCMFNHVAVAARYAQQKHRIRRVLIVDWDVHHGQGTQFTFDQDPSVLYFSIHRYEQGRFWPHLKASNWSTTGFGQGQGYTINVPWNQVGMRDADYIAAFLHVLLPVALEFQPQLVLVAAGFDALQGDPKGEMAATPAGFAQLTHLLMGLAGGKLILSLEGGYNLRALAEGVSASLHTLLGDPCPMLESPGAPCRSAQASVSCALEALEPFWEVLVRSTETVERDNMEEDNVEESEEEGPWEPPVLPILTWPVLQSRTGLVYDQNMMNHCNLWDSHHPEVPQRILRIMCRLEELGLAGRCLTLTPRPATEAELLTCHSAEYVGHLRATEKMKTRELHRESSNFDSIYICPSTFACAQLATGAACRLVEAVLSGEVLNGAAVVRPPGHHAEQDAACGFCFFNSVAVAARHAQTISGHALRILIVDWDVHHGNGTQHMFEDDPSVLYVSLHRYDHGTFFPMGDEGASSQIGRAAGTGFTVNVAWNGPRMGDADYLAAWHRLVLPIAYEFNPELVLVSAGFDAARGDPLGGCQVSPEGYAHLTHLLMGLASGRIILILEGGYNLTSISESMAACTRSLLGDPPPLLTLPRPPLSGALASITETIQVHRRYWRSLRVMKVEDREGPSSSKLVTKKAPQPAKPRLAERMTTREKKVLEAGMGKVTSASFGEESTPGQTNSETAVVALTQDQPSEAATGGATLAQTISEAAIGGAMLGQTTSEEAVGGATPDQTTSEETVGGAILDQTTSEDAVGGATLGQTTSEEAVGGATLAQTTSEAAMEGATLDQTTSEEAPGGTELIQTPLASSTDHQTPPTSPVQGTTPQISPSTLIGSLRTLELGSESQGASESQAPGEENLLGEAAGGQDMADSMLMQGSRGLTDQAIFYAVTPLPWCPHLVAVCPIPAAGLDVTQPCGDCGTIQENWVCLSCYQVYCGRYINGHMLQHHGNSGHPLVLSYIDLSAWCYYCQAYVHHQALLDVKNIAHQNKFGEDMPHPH", "assay": "HDAC isoform selectivity, HDAC6", "type": "biochemical", "details": "HDAC subtype panel"}, "[7]": {"molecular_target": "T3, HDAC8 (Homo sapiens, UniProt Q9BY41)", "T3 sequence (Q9BY41 1-377)": "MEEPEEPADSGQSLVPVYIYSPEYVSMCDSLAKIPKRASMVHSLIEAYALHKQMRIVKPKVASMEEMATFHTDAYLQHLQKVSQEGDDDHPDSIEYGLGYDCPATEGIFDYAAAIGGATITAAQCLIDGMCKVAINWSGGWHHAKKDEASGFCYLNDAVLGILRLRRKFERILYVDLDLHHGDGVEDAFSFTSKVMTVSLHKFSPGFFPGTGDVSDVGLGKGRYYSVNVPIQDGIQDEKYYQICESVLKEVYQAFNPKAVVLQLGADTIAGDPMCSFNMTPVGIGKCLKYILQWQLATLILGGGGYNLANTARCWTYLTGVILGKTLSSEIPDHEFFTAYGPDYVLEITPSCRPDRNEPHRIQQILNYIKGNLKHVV", "assay": "HDAC isoform selectivity, HDAC8", "type": "biochemical", "details": "HDAC subtype panel"}, "[8]": {"molecular_target": "HDAC9 (Homo sapiens, UniProt Q9UKV0)", "sequence (Q9UKV0 whole entry, canonical isoform)": "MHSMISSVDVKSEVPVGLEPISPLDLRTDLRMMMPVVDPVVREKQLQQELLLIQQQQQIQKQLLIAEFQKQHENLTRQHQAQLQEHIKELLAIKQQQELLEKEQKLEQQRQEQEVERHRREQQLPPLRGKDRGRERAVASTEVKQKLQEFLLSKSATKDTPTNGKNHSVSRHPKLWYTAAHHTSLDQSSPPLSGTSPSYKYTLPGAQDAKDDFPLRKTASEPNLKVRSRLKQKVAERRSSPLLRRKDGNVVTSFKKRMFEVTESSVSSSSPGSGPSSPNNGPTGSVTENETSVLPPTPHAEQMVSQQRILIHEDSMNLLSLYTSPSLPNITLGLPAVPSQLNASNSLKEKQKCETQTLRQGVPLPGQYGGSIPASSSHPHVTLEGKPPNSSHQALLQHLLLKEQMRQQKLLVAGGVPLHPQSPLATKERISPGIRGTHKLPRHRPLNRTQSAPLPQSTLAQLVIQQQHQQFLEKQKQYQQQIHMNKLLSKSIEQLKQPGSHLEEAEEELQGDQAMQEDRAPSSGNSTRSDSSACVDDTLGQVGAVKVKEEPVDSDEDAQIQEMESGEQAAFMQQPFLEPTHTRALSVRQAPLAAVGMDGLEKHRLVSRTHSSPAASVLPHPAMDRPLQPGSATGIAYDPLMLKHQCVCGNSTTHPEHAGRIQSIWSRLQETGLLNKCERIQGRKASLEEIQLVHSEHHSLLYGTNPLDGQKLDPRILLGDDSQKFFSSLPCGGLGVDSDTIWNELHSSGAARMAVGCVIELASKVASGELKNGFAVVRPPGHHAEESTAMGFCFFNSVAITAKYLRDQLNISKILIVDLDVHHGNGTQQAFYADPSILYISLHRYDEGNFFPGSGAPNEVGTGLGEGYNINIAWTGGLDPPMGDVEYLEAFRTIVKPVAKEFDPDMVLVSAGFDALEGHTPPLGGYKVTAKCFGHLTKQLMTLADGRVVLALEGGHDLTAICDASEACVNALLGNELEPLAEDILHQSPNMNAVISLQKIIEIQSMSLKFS", "assay": "HDAC isoform selectivity, HDAC9", "type": "biochemical", "details": "HDAC subtype panel"}, "[9]": {"tested_on": "MCF-7 cells", "assay": "TUNEL staining apoptosis assay", "type": "cell-based, human", "details": "MCF-7, 0.5 μM, 24 h, compared with SAHA and Nutlin-3", "experimental": "It was reported that the inactivation of HDAC and/or MDM2 could increase the percentage of apoptosis cells ([85]–[87]). Therefore, three methods were applied to assess the effect of MDM2-HDAC dual inhibitor 11b on the apoptosis of MCF-7 cells. […] Subsequently, the annexin V-FITC/propidium iodide (PI) double staining method was carried out to quantitatively detect the effect of compound 11b on cell apoptosis (Figure 9B).\nTUNEL assay was performed using in situ apoptosis detection kit (Promega, USA), according to the manufacturer’s protocols. […] After 24 h incubation, cells were plated onto the slides, fixed in 4% paraformaldehyde in PBS for 25 min, and then washed with PBS twice. After that, the cells were incubated in TUNEL reaction mixture at 37°C for 60 min. Then nuclei were counterstained with DAPI, and cells were checked under an immunofluorescent confocal microscopy (Olympus FV1000)."}, "[10]": {"molecular_target": "T1, GST-tagged MDM2", "assay": "HTRF enzyme inhibition assay, MDM2", "type": "biochemical"}, "[11]": {"tested_on": "A431 cells", "assay": "MTT antiproliferative assay, A431", "details": "Homo sapiens, A-431, read-out: IC50 A431", "quoted_text": "(§1) The cytotoxicity assay was performed with MTT method as previously described ([73], [88], [89])."}, "[12]": {"tested_on": "MCF-7 cells", "assay": "MTT antiproliferative assay, MCF-7", "details": "Homo sapiens, MCF7, read-out: IC50 MCF-7", "quoted_text": "as §1"}, "[13]": {"molecular_target": "HDAC1 (Homo sapiens, UniProt Q13547)", "sequence (Q13547 whole entry)": "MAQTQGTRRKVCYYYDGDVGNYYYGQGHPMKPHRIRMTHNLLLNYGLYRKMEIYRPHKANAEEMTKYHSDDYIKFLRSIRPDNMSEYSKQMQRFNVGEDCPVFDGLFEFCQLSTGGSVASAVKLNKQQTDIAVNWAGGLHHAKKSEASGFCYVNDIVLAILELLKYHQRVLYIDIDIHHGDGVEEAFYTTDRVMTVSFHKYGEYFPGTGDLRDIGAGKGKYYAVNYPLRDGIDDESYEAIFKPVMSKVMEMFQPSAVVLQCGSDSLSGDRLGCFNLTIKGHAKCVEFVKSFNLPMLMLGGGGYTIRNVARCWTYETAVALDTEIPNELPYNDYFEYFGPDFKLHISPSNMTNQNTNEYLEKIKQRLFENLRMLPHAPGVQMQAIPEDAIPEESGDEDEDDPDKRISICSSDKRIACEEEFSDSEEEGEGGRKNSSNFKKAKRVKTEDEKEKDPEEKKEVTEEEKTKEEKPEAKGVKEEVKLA", "assay": "HTRF enzyme inhibition assay, HDAC1", "quoted_text": "The data obtained were processed by the ratio method, and the inhibition rates of MDM2 and HDAC1 were calculated. The detailed experimental procedures are according to the manufacturer’s protocols."}, "[14]": {"tested_on": "HCT116 cells", "assay": "MTT antiproliferative assay, HCT116", "details": "Homo sapiens, HCT-116, read-out: IC50 HCT116", "quoted_text": "as §1"}},
  "data": [
    {"compound": "O=C(CCCCCCC(=O)N1CCC(C(=O)Nc2ccc([C@@H]3[C@H]4CSCN4[C@]4(C(=O)Nc5cc(Cl)ccc54)[C@H]3C(=O)c3ccccc3)cc2)CC1)NO", "note": "[compound 11b, N-(4-((3R,6'S,7'R,7a'S)-6'-benzoyl-6-chloro-2-oxo-1',6',7',7a'-tetrahydro-3'H-spiro[indoline-3,5'-pyrrolo[1,2-c]thiazol]-7'-yl)phenyl)-1-(8-(hydroxyamino)-8-oxooctanoyl)piperidine-4-carboxamide]", "values": [
      {"measurement": "inhibition at 1 µM", "setting": "[1]", "result": 68, "unit": "%"},
      {"measurement": "IC50", "setting": "[2]", "result": "64 ± 4", "unit": "nM"},
      {"measurement": "IC50", "setting": "[3]", "result": "115 ± 9", "unit": "nM"},
      {"measurement": "IC50", "setting": "[4]", "result": "> 10000", "unit": "nM"},
      {"measurement": "IC50", "setting": "[5]", "result": "> 10000", "unit": "nM"},
      {"measurement": "IC50", "setting": "[6]", "result": "120 ± 26", "unit": "nM"},
      {"measurement": "IC50", "setting": "[7]", "result": "313 ± 23", "unit": "nM"},
      {"measurement": "IC50", "setting": "[8]", "result": "> 10000", "unit": "nM"},
      {"measurement": "apoptotic positive cells by TUNEL staining", "setting": "[9]", "result": "significantly higher number of apoptotic positive cells"},
      {"measurement": "IC50", "setting": "[10]", "result": "339 ± 68", "unit": "nM"},
      {"measurement": "IC50", "setting": "[11]", "result": "1890 ± 880", "unit": "nM"},
      {"measurement": "IC50", "setting": "[12]", "result": "1370 ± 450", "unit": "nM"},
      {"measurement": "IC50", "setting": "[13]", "result": "58 ± 5", "unit": "nM"},
      {"measurement": "inhibition at 1 µM", "setting": "[13]; read-out: % enzyme inhibition HDAC", "result": 79, "unit": "%"},
      {"measurement": "IC50", "setting": "[14]", "result": "2540 ± 1070", "unit": "nM"}
    ]}
  ]
}
